# Experiments:
# [1] = test system: gram-negative and gram-positive bacteria; details: against both gram-negative and gram-positive bacteria; cited from earlier work
# [2] = test system: digitoxin serum protein binding; assay: In vitro drug studies: ability to induce changes in digitoxin serum protein binding; details: procainamide 5 mg/ml, phenytoin 50 mg/ml, heparin 5 IU/ml, rifampicillin 4.5 μg/ml
# Procedure: Digoxin isolates will be used under similar conditions.
# The ability to induce changes in digitoxin serum protein binding was tested for the following drugs: procainamide (5 mg/ml), phenytoin (50 mg/ml), heparin (5 IU/ml), and rifampicillin (4.5 μg/ml). […] Identical procedures will be used for digoxin isolates.
# serum protein [3] = assay: Free fraction of digitoxin by centrifugation; type: in vitro ADME
# Procedure: Free fraction of digitoxin increased with centrifugation time from 18% at 10 minutes to 37% at 80 minutes (500 g) without reaching plateau levels.
# serum protein [4] = assay: Digitoxin serum protein binding by equilibrium dialysis; type: in vitro ADME, patients
# Procedure: Digitoxin protein binding was dependent on albumin content. […] Chamber equilibrium dialysis gave similar results. […] (mean, 96.7%) and at 37° C. (mean, 96.9%). Digoxin isolates will be used under similar conditions.
# [5] = test system: AV node conduction and cardiac contractibility; assay: Effect on PR interval (AV node conduction) and cardiac contractibility in anesthetized guinea pig, continuous IV infusion; type: in vivo; details: infused at 6 μg/kg/min continuously IV
# Procedure: The guinea pig or rat is anesthetized with pentobarbital at 40 mg/kg IP, then-connected to an EKG recorder. The animal is then placed on a small animal respirator. Aseptic surgical instruments are soaked in ethanol and then flamed. An incision is made in the chest wall to open the chest. A Walton Brody stain gauge arch is sutured to the right ventricle to measure contractile changes. The refractoriness of the AV node is determined by measuring the PR-interval on the surface EKG. Graphs can be created from the data displaying the dose related change in the PR interval to the dose related contractile augmentation. Digoxin or chiral isolates are infused through the jugular vein at concentrations (from 0.1 μM and then to 10 μM) at a constant rate by infusion pump, to determine the differential effects on the AV node and cardiac contractibility. The infusions are continued to a 50% level augmentation in contractibility or the development of ventricular tachycardia. To maintain a consistent level of anesthesia, pentobarbital 20 mg/kg IP or 10 mg/kg IV for more immediate action at 30-minute intervals may be administered.
# The effect of digoxin and one of the two chiral isomers was evaluated in the guinea pig. Guinea pigs were anesthetized with pentobarbital. […] An EKG was continuously recorded. Conduction through the AV node was determined by measuring the PR interval on the surface EKG. […]
molecule,measurement,setting,value
"CC1COc2c(N3CCN(C)CC3)c(F)cc3c(=O)c(C(=O)O)cn1c23 (single isomer, unassigned; (-)) [(−)-Ofloxacin]",times more active as the racemate,[1],8-128 times
O=C1NC(=O)C(c2ccccc2)(c2ccccc2)N1 [phenytoin],changes in the serum protein binding of digitoxin,[2],None of these induced significant changes
CCN(CC)CCNC(=O)c1ccc(N)cc1 [procainamide],changes in the serum protein binding of digitoxin,[2],None of these induced significant changes
rifampicillin,changes in the serum protein binding of digitoxin,[2],None of these induced significant changes
C[C@H]1O[C@@H](O[C@H]2[C@@H](O)C[C@H](O[C@H]3[C@@H](O)C[C@H](O[C@H]4CC[C@@]5(C)[C@H](CC[C@@H]6[C@@H]5CC[C@]5(C)[C@@H](C7=CC(=O)OC7)CC[C@]65O)C4)O[C@@H]3C)O[C@@H]2C)C[C@H](O)[C@@H]1O [digitoxin],free fraction,"serum protein [3]; centrifugation 10 minutes, 500 g",18%
same,free fraction,"serum protein [3]; centrifugation 60 minutes, 135 g",5.9%
same,free fraction,"serum protein [3]; centrifugation 60 minutes, 560 g",15.7%
same,free fraction,"serum protein [3]; centrifugation 80 minutes, 500 g",37%
same,digitoxin binding (mean),serum protein [4]; sera from 9 patients dialyzed at 20° C.,96.7%
same,digitoxin binding (mean),serum protein [4]; sera from 9 patients dialyzed at 37° C.,96.9%
CC1O[C@@H](O[C@H]2C(O)C[C@H](O[C@H]3C(O)C[C@H](OC4CC[C@@]5(C)[C@H](CC[C@@H]6[C@@H]5C[C@@H](O)[C@]5(C)[C@@H](C7=CC(=O)OC7)CC[C@]65O)C4)OC3C)OC2C)CC(O)[C@@H]1O (stereo partly shown) [Digoxin],change in PR interval on the surface EKG,[5],progressive increase
same,change in cardiac contractibility as measured by the strain-gauge arch,[5],increase
heparin,changes in the serum protein binding of digitoxin,[2],None of these induced significant changes
